Patent publication US20240208992A1, “MACROCYCLES AS CFTR MODULATORS” (Idorsia Pharmaceuticals Ltd, priority 2021, published 2024)

Molecular target: human F508del-CFTR (Homo sapiens, UniProt P13569, DEL508-508)
Assay: F508del-CFTR cell surface expression (corrector activity), DiscoveRx ß-galactosidase complementation chemiluminescence assay in recombinant U2OS cell line;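 also: U2OS cells co-expressing ProLink-tagged F508del-CFTR and a membrane-anchored enzyme acceptor, where more surface CFTR restores β-galactosidase activity measured by chemiluminescence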
Settings: for EC50: EC50, F508del-CFTR cell surface expression, geomean values; for Emax: U2OS, arithmetic mean values
[1] = U2OS cell line, 16h compound incubation
[2] = in relation to the Emax of the corrector lumacaftor (=100%), U2OS cell line, 16h compound incubation
[3] = U2OS cells, 16h compound incubation
[4] = in relation to Emax of corrector lumacaftor (=100%)

Chain of human F508del-CFTR (P13569 with tags, fused parts or gaps DEL508-508): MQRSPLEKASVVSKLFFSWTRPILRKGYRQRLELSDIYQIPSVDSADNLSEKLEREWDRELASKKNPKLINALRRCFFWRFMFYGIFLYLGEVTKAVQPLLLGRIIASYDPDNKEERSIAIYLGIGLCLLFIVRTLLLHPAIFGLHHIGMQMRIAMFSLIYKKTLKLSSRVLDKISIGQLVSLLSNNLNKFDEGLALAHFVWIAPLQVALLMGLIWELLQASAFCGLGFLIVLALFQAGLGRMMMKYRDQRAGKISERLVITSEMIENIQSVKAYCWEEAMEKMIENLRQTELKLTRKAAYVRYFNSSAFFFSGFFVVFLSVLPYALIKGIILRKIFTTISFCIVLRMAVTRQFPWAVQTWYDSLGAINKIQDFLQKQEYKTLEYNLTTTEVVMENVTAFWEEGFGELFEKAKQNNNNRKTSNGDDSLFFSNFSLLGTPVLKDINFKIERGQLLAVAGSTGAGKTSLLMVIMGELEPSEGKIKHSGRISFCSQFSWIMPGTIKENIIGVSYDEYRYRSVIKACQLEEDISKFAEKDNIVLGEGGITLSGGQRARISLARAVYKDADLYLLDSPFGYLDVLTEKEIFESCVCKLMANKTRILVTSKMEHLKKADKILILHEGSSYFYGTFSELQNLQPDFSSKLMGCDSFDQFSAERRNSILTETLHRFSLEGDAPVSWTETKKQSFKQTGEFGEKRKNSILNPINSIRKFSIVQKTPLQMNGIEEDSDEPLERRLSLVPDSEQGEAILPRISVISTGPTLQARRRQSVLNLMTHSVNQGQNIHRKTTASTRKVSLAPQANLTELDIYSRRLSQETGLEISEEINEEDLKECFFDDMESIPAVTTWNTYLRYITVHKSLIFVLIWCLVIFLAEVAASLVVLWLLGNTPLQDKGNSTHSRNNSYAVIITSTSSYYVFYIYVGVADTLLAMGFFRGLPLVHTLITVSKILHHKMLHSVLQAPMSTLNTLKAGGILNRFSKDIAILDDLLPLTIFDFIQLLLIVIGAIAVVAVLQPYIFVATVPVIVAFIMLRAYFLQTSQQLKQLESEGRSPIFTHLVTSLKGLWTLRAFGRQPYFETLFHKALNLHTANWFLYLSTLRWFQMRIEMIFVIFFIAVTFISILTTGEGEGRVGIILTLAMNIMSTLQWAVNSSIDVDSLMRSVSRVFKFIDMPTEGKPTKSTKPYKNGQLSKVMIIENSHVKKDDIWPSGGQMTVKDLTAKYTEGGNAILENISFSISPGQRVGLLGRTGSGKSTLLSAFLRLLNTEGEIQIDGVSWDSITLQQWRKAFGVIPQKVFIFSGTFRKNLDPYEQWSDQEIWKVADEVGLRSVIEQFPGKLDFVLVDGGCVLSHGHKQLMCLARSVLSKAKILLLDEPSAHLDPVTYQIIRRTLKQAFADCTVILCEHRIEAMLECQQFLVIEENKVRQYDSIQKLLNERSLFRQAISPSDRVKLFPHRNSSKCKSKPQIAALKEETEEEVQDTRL

| Structure (SMILES) | EC50 [3] | Emax [4] | EC50 [1] | Emax [2] |
| --- | --- | --- | --- | --- |
| CC(C)C[C@H]1C(=O)N2CCN(C3CCC3)C[C@@H]2C(=O)N[C@H](Cc2ccccc2)COc2cnc3ccccc3c2C(=O)N[C@H](C(=O)NCCc2ccc3c(c2)OCO3)CC(=O)N1C [Example 395, (9S,13S,19aR,22R)-N-(2-(benzo[d][1,3]dioxol-5-yl)ethyl)-22-benzyl-18-cyclobutyl-13-isobutyl-12-methyl-7,11,14,20-tetraoxo-7,8,9,10,11,12,13,14,17,18,19,19a,20,21,22,23-hexadecahydro-16H-pyrazino[2′,11:6,7][1]oxa[4,7,10,14]tetraazacycloheptadecino[17,16-c]quinoline-9-carboxamide] | – | – | 0.11 µM | 316% |
| COCCCN1C(=O)[C@H](CC(C)C)N(C)C(=O)C[C@@H](C(=O)NCCc2cccc(OC)c2)NC(=O)c2c(ccc3ccccc23)OC[C@@H](Cc2ccccc2)NC(=O)C12CC2 [Example 396, (3′S,7′S,13′R)-13′-benzyl-7′-isobutyl-N-(3-methoxyphenethyl)-9′-(3-methoxypropyl)-6′-methyl-1′,5′,8′,11′-tetraoxo-2′,3′,4′,5′,6′,7′,8′,9′,11′,12′,13′,14′-dodecahydro-1′H-spiro[cyclopropane-1,10′-naphtho[1,2-p][1]oxa[4,7,10,14]tetraazacycloheptadecine]-3′-carboxamide] | – | – | 0.241 µM | 190% |
| CCOc1cccc(CCNC(=O)[C@@H]2CC(=O)N(C)[C@@H](CC(C)C)C(=O)N3CCOC[C@@H]3C(=O)N[C@H](Cc3ccccc3)COc3ccc4ccccc4c3C(=O)N2)c1 [Example 397, (4aR,7R,18S,22S)-7-benzyl-N-(3-ethoxyphenethyl)-22-isobutyl-21-methyl-5,16,20,23-tetraoxo-1,2,4,4a,5,6,7,8,16,17,18,19,20,21,22,23-hexadecahydronaphtho[1,2-p][1,4]oxazino[3,4-f][1]oxa[4,7,10,14]tetraazacycloheptadecine-18-carboxamide] | – | – | 0.262 µM | 207% |
| CCOc1cccc(CCNC(=O)[C@@H]2CC(=O)N(C)[C@@H](CC(C)C)C(=O)N3CCN(C4CC4)C[C@@H]3C(=O)N[C@H](Cc3ccccc3)COc3cnc4ccccc4c3C(=O)N2)c1 [Example 400, (9S,13S,19aR,22R)-22-benzyl-18-cyclopropyl-N-(3-ethoxyphenethyl)-13-isobutyl-12-methyl-7,11,14,20-tetraoxo-7,8,9,10,11,12,13,14,17,18,19,19a,20,21,22,23-hexadecahydro-16H-pyrazino[2′,11:6,7][1]oxa[4,7,10,14]tetraazacycloheptadecino[17,16-c]quinoline-9-carboxamide] | 0.164 µM | 292% | – | – |

More lines, main results first:

| EC50 [3] | Emax [4] | Structure (SMILES) | EC50 [1] | Emax [2] |
| --- | --- | --- | --- | --- |
| 0.125 µM | 280% | CC(C)C[C@H]1C(=O)N2CCN(C3CC3)C[C@@H]2C(=O)N[C@H](Cc2ccccc2)COc2cnc3ccccc3c2C(=O)N[C@H](C(=O)NCCc2cccc(OC(F)F)c2)CC(=O)N1C [Example 398, (9S,13S,19aR,22R)-22-benzyl-18-cyclopropyl-N-(3-(difluoromethoxy)phenethyl)-13-isobutyl-12-methyl-7,11,14,20-tetraoxo-7,8,9,10,11,12,13,14,17,18,19,19a,20,21,22,23-hexadecahydro-16H-pyrazino[2′,11:6,7][1]oxa[4,7,10,14]tetraazacycloheptadecino[17,16-c]quinoline-9-carboxamide] | – | – |
| 0.506 µM | 146% | CC(C)C[C@H]1C(=O)N2CCN(C3CC3)C[C@H]2C(=O)N[C@H](Cc2ccccc2)COc2cnc3ccccc3c2C(=O)N[C@H](C(=O)NCCc2cccc(OC(F)F)c2)CC(=O)N1C [Example 399, (9S,13S,19aS,22R)-22-benzyl-18-cyclopropyl-N-(3-(difluoromethoxy)phenethyl)-13-isobutyl-12-methyl-7,11,14,20-tetraoxo-7,8,9,10,11,12,13,14,17,18,19,19a,20,21,22,23-hexadecahydro-16H-pyrazino[2′,1′:6,7][1]oxa[4,7,10,14]tetraazacycloheptadecino[17,16-c]quinoline-9-carboxamide] | – | – |
